Substitutions are numbered along the chain they refer to.

The target of test [1] is T1, hA1AR W188C^5.46 (Homo sapiens, UniProt P30542, W188C).
T1 sequence (P30542 1-326 W188C): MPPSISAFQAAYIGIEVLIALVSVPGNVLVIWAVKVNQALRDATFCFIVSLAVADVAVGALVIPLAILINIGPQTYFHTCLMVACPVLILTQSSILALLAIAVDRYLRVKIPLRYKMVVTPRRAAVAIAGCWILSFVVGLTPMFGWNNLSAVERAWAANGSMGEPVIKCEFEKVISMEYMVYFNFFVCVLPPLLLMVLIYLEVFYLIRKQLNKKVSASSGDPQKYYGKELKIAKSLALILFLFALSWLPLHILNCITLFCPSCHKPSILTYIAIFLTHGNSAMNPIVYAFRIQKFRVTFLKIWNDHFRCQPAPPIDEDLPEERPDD
Here is the method: (§1) Transient transfection of CHO cells with wild type or mutated hA1AR plasmid constructs was performed using a polyethylenimine (PEI) method. Cells were seeded in 10-cm culture dishes to achieve 50–60% confluency 24 h prior to transfection. On the day of transfection, cells were transfected with a PEI: DNA ratio of 3:1 and a plasmid DNA amount of 10 μg/dish. Moreover, 24 h post-transfection, the medium was refreshed, and 48 h after transfection, cells were collected and membranes were prepared as previously described. Membranes were aliquoted in 250 or 100 μL and stored at −80 °C. Membrane protein concentrations were determined using the BCA method.
(§2) [^35S]GTPγS binding assays were adapted from a previously published method. […] Then, 20 µL of [^35S]GTPγS (final concentration of 0.3 nM) was added to each well, followed by 90 min of incubation at 25 °C. Incubations were terminated and filter-bound radioactivity was measured as described above.
(§3) All experimental data were analyzed by GraphPad Prism 7.0 or 8.0 (GraphPad Software Inc., San Diego, CA, USA). Data from yeast liquid growth and [^35S]GTPγS binding assays were analyzed by non-linear regression using “log (agonist) vs. response (three parameters)” or “log (inhibitor) vs. response (three parameters)” to obtain potency (EC50), inhibitory potency (IC50), and efficacy (Emax or Imax) values. The radioligand displacement curves were obtained from a statistically preferred one-site or two-site binding model. pKi values were calculated from pIC50 values using the Cheng–Prusoff equation, where KD values were obtained from the homologous competition assays from this study and calculated by non-linear regression using “one site–homologous” [62].

Test [2] deals with T2, hA1AR S246T^6.47 (Homo sapiens, UniProt P30542, S246T).
T2 sequence (P30542 1-326 S246T): T1 sequence (P30542 1-326 W188C) with C188W, S246T
The settings on record: [35S]GTPγS; ratio over basal activity of wild type hA1AR. Here is the method: as §1, §2, §3
Background: Binding of GTPγS marks nucleotide exchange on a G protein.

Test [3] has as its target T3, wild type hA1AR (Homo sapiens, UniProt P30542).
T3 sequence (P30542 1-326): T1 sequence (P30542 1-326 W188C) with C188W
The settings on record: [35S]GTPγS; ratio over basal activity of wild type hA1AR. Here is the method: as §1, §2, §3

Test [4] has as its target T4, hA1AR P86L^3.31 (Homo sapiens, UniProt P30542, P86L).
T4 construct: expressed in transfected cells; host or cells: S. cerevisiae MMY24
T4 sequence (P30542 1-326 P86L): T1 sequence (P30542 1-326 W188C) with P86L, C188W
Kind of test: yeast liquid growth assay. The class given is cell-based. The settings on record: result in words.

Turning to `OC[C@H]1O[C@@H](n2cnc3c(NC4CCCC4)ncnc32)[C@H](O)[C@@H]1O` [CPA, N^6-cyclopentyladenosine], the Emax in test [1] ([35S]GTPγS, ratio over basal activity of wild type hA1AR) was 1.94 ± 0.02; in test [2], 1.21 ± 0.10; in test [3], 1.48 ± 0.13. In test [1] (mammalian system), the “decrease in the potency value versus wild type” value came out at 10 fold. The agonist-induced receptor activation result in test [4] is recorded as “could not be activated”.

The values are drawn from PMC9229843, “Cancer-Related Somatic Mutations in Transmembrane Helices Alter Adenosine A1 Receptor Pharmacology” (Molecules, 2022).
